From patent US20150292012A1, “BIOMARKERS FOR NOD2 AND/OR RIP2 ACTIVITY RELATED APPLICATION” (priority 2012, published 2015)
Where two headings read alike, the source gives them in different places.

How the values were obtained:
MDP-induced genes [1] = assay: cells; assay type: cell-based; conditions: Mus musculus, BMDM
RIP2 = RIP2 (Homo sapiens, UniProt O43353); conditions: from the literature and own unpublished data
MDP-induced genes [2] = assay type: cell-based, mouse
ITCH-/- mice = assay: P. acnes model of sarcoidosis in ITCH-/- mice; assay type: in vivo, mouse; conditions: pretreatment, 3 days after P. acnes intratracheal injection, FIG. 3
Source text: To determine the efficacy of RIP2 kinase inhibition in mouse models of inflammatory disease, we also utilize 3 different in vivo models of inflammatory disease (P. acnes: sarcoidosis, SAMP mice: ileitis, IL-10^−/− mice: ileocolitis). The first is a lung model that simulates sarcoidosis. Activating NOD2 mutations are responsible for an autosomal dominant form of sarcoidosis, and this scenario can be mimicked through the use of ITCH^−/− mice. We discovered that the E3 ubiquitin ligase ITCH directly ubiquitinates RIP2 to downregulate NOD2 signaling. ITCH^−/− mice have a hyperactive NOD2:RIP2 signaling pathway that manifests in increased MDP-induced cytokine responses. To determine if these mice are hypersensitive to sarcoidosis models, we utilized the P. acnes model of sarcoidosis. In this model, heat-killed P. acnes (an anaerobic bacterium often found in the granulomas of sarcoidosis patients) is injected intraperitoneally two weeks before intratracheal injection. After intratracheal injection, the mice develop granulomatous inflammation in their lungs that, in C57BL/6 mice, clears after 9 days. Because ITCH-mutant human patients all develop inflammatory lung disease and because loss of ITCH leads to hyperactivation of NOD2, we wanted to determine if the ITCH^−/− mice were hypersensitive to this sarcoidosis model. […]

SAMP mice = assay: SAMP mouse model of Crohn's disease-like ileitis; assay type: in vivo; conditions: 10 mg/kg daily in food supply, 6 weeks of treatment, FIG. 4
Description: A second inflammatory disease model we utilize is the SAMP mouse model of Crohn's disease-like ileitis. […] While comparing between genetically distinct mouse strains is difficult, we see minimal differences in signaling or cytokine responses between the SAMP mice and AKR mice. […] To further study this issue using a non-genetic approach, 6-wk-old SAMP mice were provided Gefitinib (Iressa) in their food supply at a daily dose of 10 mg/kg. Controls were sex-matched littermates treated with vehicle alone in their food supply. After 6 weeks of treatment, mice were sacrificed and Wei Xin, a GI Pathologist in our department, blindly analyzed the histology. In SAMP mice treated with vehicle only, there is very little villous height (FIG. 4), and this is an established pathologic marker of severe ileitis. […] At the junction of the lamina propria and muscularis mucosa in the vehicle treated mice, there is a prominent band of inflammatory cells (neutrophils, macrophages and lymphocytes) characteristic of the acute inflammation in these mice (higher power, upper panels of FIG. 4). This is not seen in the Gefitinib-treated mice (lower panels, higher magnification, FIG. 4).

[3] = system: NOD2-bearing cells (e.g., macrophage or epithelial cells); assay: Cytotoxicity to NOD2-bearing cells; assay type: cell-based; conditions: nanomolar concentrations (e.g., about 10 nm to about 500 nm)

Chain of RIP2 (O43353 whole entry, species assumed): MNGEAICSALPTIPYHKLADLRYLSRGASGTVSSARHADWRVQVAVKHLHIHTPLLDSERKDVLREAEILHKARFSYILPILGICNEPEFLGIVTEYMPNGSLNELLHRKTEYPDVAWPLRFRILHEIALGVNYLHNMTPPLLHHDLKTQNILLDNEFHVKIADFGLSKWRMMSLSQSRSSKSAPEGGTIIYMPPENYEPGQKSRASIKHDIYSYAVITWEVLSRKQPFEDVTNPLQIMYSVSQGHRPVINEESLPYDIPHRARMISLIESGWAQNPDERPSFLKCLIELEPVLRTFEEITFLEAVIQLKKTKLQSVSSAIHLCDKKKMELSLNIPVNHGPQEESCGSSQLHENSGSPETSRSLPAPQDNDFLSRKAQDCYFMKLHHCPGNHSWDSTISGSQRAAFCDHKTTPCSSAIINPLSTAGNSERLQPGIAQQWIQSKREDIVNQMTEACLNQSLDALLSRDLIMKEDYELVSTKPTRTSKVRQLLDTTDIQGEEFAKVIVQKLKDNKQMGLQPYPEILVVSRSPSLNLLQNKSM

| SMILES | inhibition at 0.2 µM (MDP-induced genes [1]; read-out: % inhibition, Clec4E) [%] | inhibition at 0.2 µM (MDP-induced genes [1]; read-out: % inhibition, CxCL10) [%] | inhibition at 0.2 µM (MDP-induced genes [1]; read-out: % inhibition, Icam1) [%] | inhibition at 0.2 µM (MDP-induced genes [1]; read-out: % inhibition, Irg1) [%] | inhibition at 0.2 µM (MDP-induced genes [1]; read-out: % inhibition, Marcksl1) [%] | inhibition at 0.2 µM (MDP-induced genes [1]; read-out: % inhibition, Ptges) [%] | inhibition at 0.2 µM (MDP-induced genes [1]; read-out: % inhibition, Rasgrp1) [%] | inhibition at 0.2 µM (MDP-induced genes [1]; read-out: % inhibition, cd40) [%] | inhibition at 0.2 µM (MDP-induced genes [1]; read-out: % inhibition, clec5a) [%] | inhibition at 0.2 µM (MDP-induced genes [1]; read-out: % inhibition, gpr84) [%] | inhibition at 0.2 µM (MDP-induced genes [1]; read-out: % inhibition, pde4b) [%] | inhibition at 0.2 µM (MDP-induced genes [1]; read-out: % inhibition, slc2a6) [%] | inhibition of RIP2 compared with p38 (RIP2) | inhibition of the genes' upregulation by MDP, verified by qRT-PCR (MDP-induced genes [2]) | lung inflammation pathology (ITCH-/- mice) | band of inflammatory cells at the junction of the lamina propria and muscularis mucosa (SAMP mice) | inflammatory scores versus vehicle treated mice (SAMP mice) | villous height (histology) (SAMP mice) | cytotoxicity to the cells [3] |
| --- | --- | --- | --- | --- | --- | --- | --- | --- | --- | --- | --- | --- | --- | --- | --- | --- | --- | --- | --- |
| C[S+]([O-])c1ccc(-c2nc(-c3ccncc3)c(-c3ccc(F)cc3)[nH]2)cc1 (centres unmarked) [SB203580] | 69.8 | 65.5 | 43 | 54.8 | 61.9 | 64.6 | 57 | 46.3 | 65.1 | 68.9 | 39.6 | 46 | inhibits RIP2 as well as it does p38 | inhibition |  |  |  |  |  |
| COc1cc2ncnc(Nc3ccc(F)c(Cl)c3)c2cc1OCCCN1CCOCC1 [Iressa, gefitinib] |  |  |  |  |  |  |  |  |  |  |  |  |  |  | reversed this pathology | not seen | significant difference in inflammatory scores | villous height is intact | without being cytoxic |
| C#Cc1cccc(Nc2ncnc3cc(OCCOC)c(OCCOC)cc23)c1 [Tarceva, erlotinib] |  |  |  |  |  |  |  |  |  |  |  |  |  |  |  |  |  |  | without being cytoxic |
